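A five-concentration, 48-hour dose response in 96-well plates underlies each endpoint, interpolated linearly between surrounding concentrations. TGI: concentration producing complete growth inhibition.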
Assays:
Assay in all cases: DTP human tumour cell line panel, 48 h
[1] = system: SNB-75 CNS
[2] = system: TK-10 renal
[3] = system: 786-0 renal
[4] = system: SK-OV-3 ovarian
[5] = system: SF-295 CNS
[6] = system: NCI/ADR-RES ovarian
[7] = system: K-562 leukemia
[8] = system: HL-60(TB) leukemia
[9] = system: HT29 colon
[10] = system: SN12C renal
[11] = system: OVCAR-3 ovarian
[12] = system: NCI-H226 lung
[13] = system: T-47D breast
[14] = system: IGROV1 ovarian
[15] = system: LOX IMVI melanoma
[16] = system: SNB-19 CNS
[17] = system: SK-MEL-28 melanoma
[18] = system: ACHN renal
[19] = system: M14 melanoma
[20] = system: A498 renal
[21] = system: UACC-257 melanoma
[22] = system: SW-620 colon
[23] = system: SF-268 CNS
[24] = system: BT-549 breast
[25] = system: HCT-116 colon
[26] = system: CAKI-1 renal
[27] = system: PC-3 prostate
[28] = system: MCF7 breast
[29] = system: NCI-H460 lung
[30] = system: MDA-N
[31] = system: OVCAR-5 ovarian
[32] = system: U251 CNS
[33] = system: MALME-3M melanoma
[34] = system: HS 578T breast
[35] = system: MDA-MB-231 breast
[36] = system: A549 NSCLC
[37] = system: KM12 colon
[38] = system: NCI-H522 lung
[39] = system: EKVX NSCLC
[40] = system: UACC-62 melanoma
[41] = system: HCT-15 colon
[42] = system: SF-539 CNS
[43] = system: OVCAR-8 ovarian
[44] = system: CCRF-CEM leukemia
[45] = system: RPMI-8226 leukemia
[46] = system: SK-MEL-2 melanoma
[47] = system: RXF 393 renal
[48] = system: HOP-62 NSCLC
[49] = system: MDA-MB-435
[50] = system: COLO 205 colon
[51] = system: HOP-92 NSCLC
[52] = system: OVCAR-4 ovarian
[53] = system: UO-31 renal
[54] = system: SK-MEL-5 melanoma
[55] = system: NCI-H23 lung
[56] = system: DU-145 prostate
[57] = system: HCC-2998 colon
[58] = system: MOLT-4 leukemia
[59] = system: SR leukemia

Q: For `O=C(O)c1cccc(F)c1C(=O)c1ccc2ccccc2c1`, which TGI [1] is on record?
A: The TGI was over 100 µM.

Q: What about the TGI [2] of the same molecule?
A: Its TGI is over 100 µM.

Q: And the TGI [3]?
A: The TGI was over 100 µM.

Q: And the TGI [4]?
A: The TGI was over 100 µM.

Q: And the TGI [5]?
A: Its TGI is over 100 µM.

Q: What about the TGI [6] of the same molecule?
A: The TGI was over 100 µM.

Q: What about the TGI [7] of the same molecule?
A: Its TGI is over 100 µM.

Q: And the TGI [8]?
A: The TGI was over 100 µM.

Q: And the TGI [9]?
A: The TGI was over 100 µM.

Q: And the TGI [10]?
A: Its TGI is over 100 µM.

Q: And the TGI [11]?
A: Its TGI is over 100 µM.

Q: What about the TGI [12] of the same molecule?
A: The TGI was over 100 µM.

Q: What about the TGI [13] of the same molecule?
A: Its TGI is over 100 µM.

Q: And the TGI [14]?
A: Its TGI is over 100 µM.

Q: What about the TGI [15] of the same molecule?
A: Its TGI is over 100 µM.

Q: What about the TGI [16] of the same molecule?
A: The TGI was over 100 µM.

Q: And the TGI [17]?
A: The TGI was over 100 µM.

Q: What about the TGI [18] of the same molecule?
A: Its TGI is over 100 µM.

Q: And the TGI [19]?
A: The TGI was over 100 µM.

Q: And the TGI [20]?
A: The TGI was over 100 µM.

Q: And the TGI [21]?
A: Its TGI is over 100 µM.

Q: And the TGI [22]?
A: Its TGI is over 100 µM.

Q: And the TGI [23]?
A: The TGI was over 100 µM.

Q: And the TGI [24]?
A: The TGI was over 100 µM.

Q: And the TGI [25]?
A: The TGI was over 100 µM.

Q: And the TGI [26]?
A: Its TGI is over 100 µM.

Q: And the TGI [27]?
A: Its TGI is over 100 µM.

Q: And the TGI [28]?
A: Its TGI is over 100 µM.

Q: And the TGI [29]?
A: The TGI was over 100 µM.

Q: What about the TGI [30] of the same molecule?
A: The TGI was over 100 µM.

Q: What about the TGI [31] of the same molecule?
A: Its TGI is over 100 µM.

Q: What about the TGI [32] of the same molecule?
A: The TGI was over 100 µM.

Q: And the TGI [33]?
A: The TGI was over 100 µM.

Q: And the TGI [34]?
A: Its TGI is over 100 µM.

Q: And the TGI [35]?
A: The TGI was over 100 µM.

Q: And the TGI [36]?
A: The TGI was over 100 µM.

Q: And the TGI [37]?
A: The TGI was over 100 µM.

Q: What about the TGI [38] of the same molecule?
A: Its TGI is over 100 µM.

Q: What about the TGI [39] of the same molecule?
A: Its TGI is over 100 µM.

Q: What about the TGI [40] of the same molecule?
A: Its TGI is over 100 µM.

Q: What about the TGI [41] of the same molecule?
A: The TGI was over 100 µM.

Q: What about the TGI [42] of the same molecule?
A: The TGI was over 100 µM.

Q: What about the TGI [43] of the same molecule?
A: The TGI was over 100 µM.

Q: What about the TGI [44] of the same molecule?
A: Its TGI is over 100 µM.

Q: And the TGI [45]?
A: The TGI was over 100 µM.

Q: And the TGI [46]?
A: Its TGI is over 100 µM.

Q: And the TGI [47]?
A: The TGI was over 100 µM.

Q: What about the TGI [48] of the same molecule?
A: The TGI was over 100 µM.

Q: What about the TGI [49] of the same molecule?
A: Its TGI is over 100 µM.

Q: What about the TGI [50] of the same molecule?
A: The TGI was 6.1 µM.

Q: And the TGI [51]?
A: Its TGI is over 100 µM.

Q: And the TGI [52]?
A: The TGI was over 100 µM.

Q: And the TGI [53]?
A: Its TGI is over 100 µM.

Q: Which results are given for `Oc1ccccc1/C=N/N1C(=S)N(c2ccccc2)C(=Nc2ccccc2)C1=Nc1ccccc1`?
A: TGI [1]: 11.4 µM; TGI [2]: 20.8 µM; TGI [3]: 14.1 µM; TGI [4]: 30.7 µM; TGI [5]: 23.2 µM; TGI [6]: 41 µM; TGI [7]: > 64.7 µM; TGI [8]: > 86.1 µM; TGI [9]: 12.7 µM; TGI [10]: 28.2 µM; TGI [11]: 28.2 µM; TGI [12]: 26.4 µM; TGI [13]: 75.6 µM; TGI [14]: 30.8 µM; TGI [54]: 40.9 µM; TGI [15]: 36.2 µM; TGI [16]: 20.7 µM; TGI [17]: 80.5 µM; TGI [18]: 17.5 µM; TGI [19]: 28.7 µM; TGI [20]: 17.2 µM; TGI [21]: > 68 µM; TGI [22]: > 54.1 µM; TGI [23]: 26.7 µM; TGI [25]: 26.5 µM; TGI [26]: 29.6 µM; TGI [27]: 47.2 µM; TGI [55]: 24.9 µM; TGI [28]: > 100 µM; TGI [29]: 32.4 µM; TGI [30]: > 52.1 µM; TGI [31]: > 52.4 µM; TGI [32]: 14.2 µM; TGI [56]: > 68.3 µM; TGI [33]: > 54.6 µM; TGI [34]: 37.7 µM; TGI [35]: 24.1 µM; TGI [36]: 37.7 µM; TGI [57]: > 78.2 µM; TGI [37]: > 100 µM; TGI [58]: > 89.5 µM; TGI [38]: 12.6 µM; TGI [39]: 32.2 µM; TGI [40]: 29.3 µM; TGI [41]: > 100 µM; TGI [42]: 17.9 µM; TGI [43]: 18.2 µM; TGI [59]: > 81.2 µM; TGI [44]: > 62.9 µM; TGI [45]: > 72.8 µM; TGI [46]: 42.9 µM; TGI [47]: 18.1 µM; TGI [48]: 22.6 µM; TGI [49]: > 60 µM; TGI [50]: 11.3 µM; TGI [51]: 16.3 µM; TGI [52]: 15.2 µM; TGI [53]: 33.1 µM

Source: PubChem BioAssay (NCI)
